# Entries after “also recorded” stand apart in the source; their conditions may differ.
# Experiments:
# [1] = system: Influenza A virus WSN strain; assay: Influenza A antiviral assays (NP ELISA, western blot); format: cell-based; settings: NP protein ELISA / western blot
# Huh7 cells = format: cell-based, human
# Protocol: To assess a potential effect of KIN101 on cellular metabolism, Huh7 cells were grown for 48 hours with increasing doses of KIN101 and analyzed using an MTS assay (the higher the O.D. the more metabolism occurring).
# Huh 7 cells were seeded in clear bottom 96-well tissue culture plates and grown for 24 hours. Seeded cells were treated with increasing concentrations of compound (0, 5, 10, 20, and 50 μM in media containing 0.5% DMSO) for 24 hours. Negative control wells contained 0.5% DMSO only and positive control for cytotoxicity was examined using an EMCV infection which causes 100% cytopathic effect. The proportion of viable cells was calculated using a cell viability assay that measures conversion of a tetrazolium compound [[…]-5-(3-carboxymethoxyphenyl)-2-(4-sulfophenyl)-2H-tetrazolium, inner salt; MTS] to a colored formazan compound in live cells. The conversion of MTS to formazan was detected by a 96-well microtiter plate reader, and the resulting optical densities (O.D.) were used directly to estimate cell viability. Cells were incubated for three hours in the presence of one-step reagent (Cell Titer One, Promega) before O.D. reading was done. Experiments were performed in triplicate.
# actin promoter = actin promoter luciferase counter screen in Huh 7 cells; format: cell-based, human; settings: 10 uM
# RSV A2 strain = assay: RSV-infected HeLa cell viability (trypan blue count); format: cell-based, respiratory syncitial virus (RSV); settings: HeLa cells, RSV A2 MOI=1.0, treated 48 hours
# Protocol: HeLa cells were infected with RSV A2 strain MOI=1.0 and were then treated with KIN101 for 48 hours. Cells were grown under normal growth conditions and cell viability was determined by counting the number of live cells and comparing drug treated and RSV infected cells to infected cells that were mock treated (no drug; vehicle alone). Cells were stained with trypan blue and counted using a hemacytometer. The number of live cells versus concentration of KIN101 added was plotted.
# HCV-2a = HCV-2a antiviral assays in Huh 7 cells (immunofluorescence, qPCR); format: cell-based, Hepatitis C virus; settings: Huh7 cells, HCV-2a MOI 1.0
# Protocol: Huh 7 cells were treated with KIN101 for 24 hours and then infected with HCV-2a MOI=1.0. Cells were grown for an additional 48 hours and then stained for HCV proteins. The number of infected cells versus concentration of KIN101 added was plotted in panel A.
# Huh 7 cells were pre-treated with KIN101 at 10 uM and grown for 18 hours. Cells were then infected with HCV-2a MOI=1.0 and grown for an additional 72 hours. Supernatants from infected cells were harvested, HCV RNA was purified and viral RNA quantitated utilizing Real Time PCR with HCV specific primers. Cells infected with HCV that were not KIN101-treated were utilized as a control and values set to 100% infection rate. Interferon-alpha was used as a positive control for HCV inhibition.
# Huh 7 cells were infected with HCV-2a MOI=1.0 and 4 hours following infection compounds or interferon were added to infected cells. The remainder of experiment was performed as described for FIG. 7B.
# Huh 7 cells were seeded as described above for the IRF-3 immunofluorescent assay. Cells were treated with 10 μM compound in media containing 0.5% DMSO. […] The number of infected cells was quantitated based on positive staining. […]
# Huh 7 cells were seeded and treated as described above for the HCV antiviral assay. […] The genome copies of HCV2a in 5 μL of RNA purified from supernatants was quantitated by qPCR. […]
# RSV-A2 = assay: RSV viral RNA by Real Time PCR in HeLa supernatants; format: cell-based, respiratory syncitial virus (RSV); settings: RSV-A2 MOI=1.0, 48 hours
# Protocol: HeLa cells were infected with RSV-A2 MOI=1.0 and subsequently treated with KIN101 at the indicated concentrations and grown for 48 hours. Supernatants from infected cells were harvested, RSV RNA was purified and viral RNA quantitated utilizing Real Time PCR with RSV specific primers. Cells infected with RSV that were not KIN101-treated were utilized as a control.
# IRF-3 [2] = assay: Immunofluorescent assay for nuclear translocation of IRF-3 in Huh7 cells; format: cell-based, human; settings: 10 μM, 18 h
# Protocol: Huh 7 cells were seeded in clear bottom 96-well tissue culture plates at a density of 5×10^3 cells per well and grown for 24 hours. Cells were treated with compounds at final concentrations of 20 μM and 10 μM in media containing 0.5% DMSO. Negative control cells contain 0.5% DMSO only and positive control cells were infected with 10 HA of Sendai virus. […] Staining was performed as directed by instructions in the Cellomics translocation kit (Thermo Scientific). Rabbit polyclonal antibody against IRF-3 was used (1:400). Secondary anti-rabbit antibody conjugated to Dylight 488 (FITC equivalent) and Hoescht dye (nuclear stain) were used for detection of cellular IRF-3 and cell nuclei. Following secondary antibody incubation the monolayers were washed and left in 100 μL wash buffer for imaging. IRF-3 (FITC) and nuclear staining (DAPI) were viewed and quantitated by inverted microscope. Images were taken using MetaMorph software and saved as high resolution image files. Compound treatments were done in triplicate.
# [3] = system: proteins downstream of IRF activation; assay: Western blot of IRF centric gene products in treated cells; format: cell-based, human; settings: after KIN101 treatment; IFN-β positive control
# Source text: Western blot was used to quantitate levels of IRF centric gene products in human whole cell lysates from cells treated with KIN101.
# MRC5 cells = assay: Expression microarray analysis of KIN101-treated MRC5 cells; format: cell-based, human; settings: 10 μM
# Protocol: Expression microarray analysis and bioinformatics were performed as follows. Total RNA isolation and mRNA amplification were performed on equal masses of total RNA from MRC5 cells treated with either DMSO, negative control, or 10 μM KIN101 at 20 hours post treatment, and from MRC5 cells infected with Sendai virus at 20 hours post infection. Probe labeling and microarray slide hybridization were performed with the Agilent Whole Human Genome microarrays, wherein each microarray contains 44K probes, corresponding to approximately 41,000 human genes. Slides were scanned with an Agilent DNA microarray scanner, and the resulting images were analyzed using Agilent Feature Extractor (AFE) version 9.5.3.1. All data were entered into a custom-designed Oracle 9i-backed relational database (Labkey, Inc., Seattle, Wash.) and uploaded into Rosetta Resolver System 7.2 (Rosetta Biosoftware) and Spotfire Decision Site 9.1.1 (Spotfire AB) for analysis and visualization. […] Functional analysis of statistically significant gene expression changes was performed with IPA® (Ingenuity Systems, Inc., Redwood City, Calif.). This software analyzes RNA expression data in the context of known biological response and regulatory networks as well as other higher-order response pathways. IPA functional analysis identified biological functions and/or diseases that were most significant among differentially regulated genes. In the functional networks, genes are represented as nodes, and the biological relationship between 2 nodes is represented as an edge (line). All edges are supported by at least 1 published reference or from canonical information stored in the Ingenuity Pathways Knowledge Base. MRC5 cells were treated with KIN101 (10 μM) or a negative control (selected from the diversity library for having no activity in screening assays) for 20 h. Sendai virus infection was used as a positive control for the up-regulation of innate immune pathways. Total RNA was purified from triplicate samples to enable statistical analysis of the microarray data.
# Dengue virus serotype 2 = assay: Dengue virus protein western blot in HEK 293 cells; format: cell-based; settings: 0.1 uM, pre-treated 18 hours, MOI=1.0, 48 hours
# Protocol: HEK 293 cells were seeded to a confluency of 80% in a 6-well dish. Cells were grown for 18 hours under normal growth conditions. Cells were treated with the indicated concentration of KIN101 in media containing 0.5% DMSO for 18 hours. The next day drug was removed from treated cells and cells were infected with Dengue virus serotype 2 at an MOI=1.0; infected cells were incubated under normal growth conditions for 48 hours. For Dengue virus analysis whole cell lysates were prepared and analyzed by western blot for Dengue virus specific proteins.
# RSV = RSV plaque formation in HeLa cells; format: cell-based, respiratory syncitial virus (RSV); settings: MOI=1.0 or 0.1, 10 uM in agar overlay, 3-4 days
# Protocol: HeLa cells were seeded to 90% confluency and infected with RSV at MOI=1.0 (1^3 dilution) or MOI=0.1 (1^4 dilution) for 2 hours. Virus was removed and cells were overlayed with agar in the presence of KIN101 10 uM. Infected cells were incubated for 3-4 days to allow for RSV plaque formation. Plaques were visualized by staining with crystal violet.
# IRF-3 [4] = assay: IRF-3 nuclear translocation in cells expressing HCV NS3-4A protease (viral countermeasure); settings: human osteosarcoma cells expressing HCV NS3-4A protease, 10 μM, 18 h
# Protocol: Human osteosarcoma cells were stably transformed with the HCV NS3-4A protease coding sequence under control of a tetracycline inducible promoter. Cells were grown in the presence of tetracycline to keep expression of HCV protease off. […] Sendai virus infection was used as a control for IRF-3 translocation that was inhibited by HCV NS3-4A protease. Mock-treated cells were grown in media containing 0.5% DMSO. Images were analyzed on an Array Scan VTI to quantitate the IRF-3 staining in the nucleus and cytoplasm.
# U2OS NS3/4A cells were thoroughly washed to remove Tetracycline and then seeded for the assay in the absence of Tetracycline to enable NS3/4A expression. Compound treatments were done as described above for Huh 7 cells.
# ISG54 promoter = ISG54 promoter luciferase reporter assay / high-throughput screen in Huh 7 cells; format: cell-based, human
# Protocol: A compound referred to herein as “KIN101” was identified by the screening methods disclosed herein as a RIG-I modulator. Huh 7 cells stably expressing a luciferase cistron driven by the ISG54 promoter were treated with KIN101 for 18 hours and then analyzed for luciferase production. […] Huh 7 cells were stably transfected with a luciferase promoter construct driven by the consensus ISG54 promoter. The following sequence was inserted into the pGL4.17 construct (Promega) using the restriction sites indicated (underlined): Reporter cell lines were cultured under antibiotic selection until seeding. Cells were seeded in white opaque bottom 96-well tissue culture plates at a density of 1×10^4 cells/well and grown for 24 hours without antibiotic selection. […] The remainder of the wells were treated with compound diluted to a final concentration of 10 μM in media containing 0.5% DMSO. Cells were incubated with control or compound treatment for 24 hours. Steady-Glo luciferase reagent (Promega) was added at 50 μL per well, mixed thoroughly, and incubated at room temperature for 20 minutes. Luminescence was quantitated per well using a luminometer (Berthold). Confirmation of initial hits was performed in triplicate.
# [5] = 20 h, ANOVA p-value <0.01, >2 fold change
compound,measurement,setting,value
CS(=O)(=O)Oc1ccc2c(=O)c(-c3ccc(Br)cc3)coc2c1 [KIN101],antiviral activity against Influenza A,[1],antiviral activity
same,effect on cellular metabolism (MTS assay),Huh7 cells,did not affect cellular metabolism
same,expression of luciferase under control of the actin promoter,actin promoter,did not increase expression of luciferase
same,protection from RSV induced cytopathic effects and cell death,RSV A2 strain,protects cells from RSV induced cytopathic effects and cell death
same,antiviral activity against HCV,HCV-2a,antiviral activity
same,amount of RSV viral RNA produced by infected cells,RSV-A2,decreases the amount of RSV viral RNA produced by infected cells
same,IRF-3 nuclear translocation,IRF-3 [2],induced nuclear translocation of IRF-3; also recorded: induction of IRF-3 nuclear translocation
same,abundance of proteins downstream of IRF activation (Western blot),[3],increased abundance of proteins downstream of IRF activation
same,differentially expressed genes compared to DMSO treatment,MRC5 cells; [5],75 genes
same,down-regulated genes compared to DMSO treatment,MRC5 cells; [5],11 genes
same,up-regulated genes compared to DMSO treatment,MRC5 cells; [5],64 genes
same,expression of immune pathways,MRC5 cells; 20 hours post treatment,induced expression of discrete immune pathways centered on IRF signaling
same,inhibition of Dengue virus protein accumulation,Dengue virus serotype 2,substantially complete inhibition
same,number and size of RSV induced plaques,RSV,decreases the number and size of viral induced plaques
same,IRF-3 nuclear translocation in the presence of viral countermeasure,IRF-3 [4],induction of IRF-3 nuclear translocation
same,hit in high-throughput screen for ISG54 luciferase reporter activity (RIG-I agonist activity),"ISG54 promoter; 20,000-member diversity library screened at 10 μM, four standard deviation threshold",hits
same,luciferase expression under control of the ISG54 promoter,"ISG54 promoter; Huh 7 cells, treated 18 hours, increasing doses",dose dependent increase in luciferase expression

# From patent US9458492B2, “Methods and cells for identifying RIG-I pathway regulators” (Kineta, Inc., priority 2011, dated 2016)
